Laboratory results from patent publication US10646469B2, “Substituted indole derivatives as dengue viral replication inhibitors” (Janssen Pharmaceuticals, Inc., priority 2016, dated 2020).

Key:
DENV-2 16681 strain = assay: DENV-2 antiviral assay (eGFP-labeled virus in Vero cells); assay type: cell-based, Dengue virus; details: DENV-2 16681 eGFP, MOI 0.5, 3 days
Protocol: The antiviral activity of all the compounds of the invention was tested against the DENV-2 16681 strain which was labeled with enhanced green fluorescent protein (eGPF). The culture medium consists of minimal essential medium supplemented with 2% of heat-inactivated fetal calf serum, 0.04% gentamycin (50 mg/mL) and 2 mM of L-glutamine. Vero cells, obtained from ECACC, were suspended in culture medium and 25 μL was added to 384-well plates (2500 cells/well), which already contain the antiviral compounds. Typically, these plates contain a 5-fold serial dilution of 9 dilution steps of the test compound at 200 times the final concentration in 100% DMSO (200 nL). […] Finally, each plate contains wells which are assigned as virus controls (containing cells and virus in the absence of compound), cell controls (containing cells in the absence of virus and compound) and medium controls (containing medium in the absence of cells, virus and compounds). To the wells assigned as medium control, 25 μL of culture medium was added instead of Vero cells. Once the cells were added to the plates, the plates were incubated for 30 minutes at room temperature to allow the cells to distribute evenly within the wells. Next, the plates were incubated in a fully humidified incubator (37° C., 5% CO2) until the next day. Then, DENV-2 strain 16681, labeled with eGFP, was added at a multiplicity of infection (MOI) of 0.5. Therefore, 15 μL of virus suspension was added to all the wells containing test compound and to the wells assigned as virus control. In parallel, 15 μL of culture medium was added to the medium and cell controls. Next, the plates were incubated for 3 days in a fully humidified incubator (37° C., 5% CO2). At the day of the read out, the eGFP fluorescence was measured using an automated fluorescence microscope at 488 nm (blue laser). Using an in-house LIMS system, inhibition dose response curves for each compound were calculated and the half maximal effective concentration (EC50) was determined. Therefore, the percent inhibition (I) for every test concentration is calculated using the following formula: I=100*([…])/(SVC−SCC); ST, SCC and SVC are the amount of eGFP signal in the test compound, cell control and virus control wells, respectively. The EC50 represents the concentration of a compound at which the virus replication is inhibited with 50%, as measured by a 50% reduction of the eGFP fluorescent intensity compared to the virus control. The EC50 is calculated using linear interpolation (Table 1).

DENV-4 strain H241 = assay: Tetravalent RT-qPCR assay, serotype 4; assay type: cell-based; details: Dengue virus, DENV4, 72 h; RT-qPCR serotype 4 H241, Protocol A, Vero cells, day 3
Protocol: (§1) The antiviral activity of the compounds of the invention was tested against DENV-1 strain TC974 #666 (NCPV), DENV-2 strain 16681, DENV-3 strain H87 (NCPV) and DENV-4 strain H241 (NCPV) in a RT-qPCR assay. Therefore, Vero cells were infected with either DENV-1, or -2, or -3, or -4 in the presence or absence of test compounds. At day 3 post-infection, the cells were lysed and cell lysates were used to prepare cDNA of both a viral target (the 3′UTR of DENV; Table 2) and cellular reference gene (β-actin, Table 2). Subsequently, a duplex real time PCR was performed on a Lightcycler480 instrument. The generated Cp value is inversely proportional to the amount of RNA expression of these targets. Inhibition of DENV replication by a test compound results in a shift of Cp's for the 3′UTR gene. On the other hand, if a test compound is toxic to the cells, a similar effect on β-actin expression will be observed. The comparative ΔΔCp method is used to calculate EC50, which is based on the relative gene expression of the target gene (3′UTR) normalized with the cellular housekeeping gene (β-actin). In addition, CC50 values are determined based on the Cp values acquired for the housekeeping gene β-actin.
(§2) The culture medium consisted of minimal essential medium supplemented with 2% of heat-inactivated fetal calf serum, 0.04% gentamycin (50 mg/mL) and 2 mM of L-glutamine. Vero cells, obtained from ECACC, were suspended in culture medium and 75 μL/well was added in 96-well plates (10000 cells/well), which already contain the antiviral compounds. […] In addition, each plate contains wells which are assigned as virus controls (containing cells and virus in the absence of compound) and cell controls (containing cells in the absence of virus and compound). Once the cells were added in the plates, the plates were incubated in a fully humidified incubator (37° C., 5% CO2) until the next day. Dengue viruses serotype-1, 2, 3 and 4 were diluted in order to obtain a Cp of ˜22-24 in the assay. Therefore, 25 μL of virus suspension was added to all the wells containing test compound and to the wells assigned as virus control. In parallel, 25 μL of culture medium was added to the cell controls. Next, the plates were incubated for 3 days in a fully humidified incubator (37° C., 5% CO2). After 3 days, the supernatant was removed from the wells and the cells were washed twice with ice-cold PBS (˜100 μL). The cell pellets within the 96-well plates were stored at −80° C. for at least 1 day. Next, RNA was extracted using the Cells-to-CT™ lysis kit, according to the manufacturer's guideline (Life Technologies). The cell lysates can be stored at −80° C. or immediately used in the reverse transcription step.
(§3) In preparation of the reverse transcription step, mix A (table 3A) was prepared and 7.57 μL/well was dispensed in a 96-well plate. After addition of 5 μL of the cell lysates, a five minute denaturation step at 75° C. was performed (table 3B). Afterwards, 7.43 μL of mix B was added (table 3C) and the reverse transcription step was initiated (table 3D) to generate cDNA.
(§4) Finally, a RT-qPCR mix was prepared, mix C (table 4A), and 22.02 μL/well was dispensed in 96-well LightCycler qPCR plates to which 3 μL of cDNA was added and the qPCR was performed according to the conditions in table 4B on a LightCycler 480.
(§5) Using the LightCycler software and an in-house LIMS system, dose response curves for each compound were calculated and the half maximal effective concentration (EC50) and the half maximal cytotoxic concentration (CC50) were determined (Tables 5-8).

[1] = Cytotoxicity in RT-qPCR assay (Cp of housekeeping gene β-actin); assay type: cell-based; details: African green monkey
Protocol: as §1, §2, §5

DENV-3 strain H87 = assay: Tetravalent RT-qPCR assay, serotype 3; assay type: cell-based; details: Dengue virus, DENV3, 72 h; RT-qPCR serotype 3 H87, Protocol A, Vero cells, day 3
Protocol: as §1, §2, §3, §4, §5

DENV-1 strain TC974 #666 = assay: Tetravalent RT-qPCR assay, serotype 1; assay type: cell-based; details: Dengue virus, DENV1, 72 h; RT-qPCR serotype 1 TC974#666, Protocol A, Vero cells, day 3
Protocol: as §1, §2, §3, §4, §5

Vero cells = assay: Toxicity on the same plates (ATPlite cell viability); details: Vero cells, same plates as DENV-2 antiviral assay
DENV-2 strain 16681 = assay: Tetravalent RT-qPCR assay, serotype 2; assay type: cell-based; details: Dengue virus, DENV2, 72 h; RT-qPCR serotype 2 16681, Protocol A, Vero cells, day 3
Protocol: as §1, §2, §3, §4, §5

[2] = Toxicity on the same plates (ATPlite cell viability); details: African green monkey, CC50, Vero cells, same plates as DENV-2 antiviral assay
[3] = RT-qPCR serotype 1 TC974#666, Protocol A
[4] = RT-qPCR serotype 2 16681, Protocol A
[5] = RT-qPCR serotype 3 H87, Protocol A
[6] = RT-qPCR serotype 4 H241, Protocol A

Row | SMILES | EC50 (DENV-2 16681 strain) [nM] | EC50 (DENV-4 strain H241) [nM] | CC50 at 3 days [1, 3] [nM] | CC50 at 3 days [1, 4] [nM] | CC50 at 3 days [1, 5] [nM] | CC50 at 3 days [1, 6] [nM] | EC50 (DENV-3 strain H87) [nM] | EC50 (DENV-1 strain TC974 #666) [nM] | CC50 (Vero cells) [nM] | EC50 (DENV-2 strain 16681) [nM] | CC50 [2] [nM]
1 | COc1cc(NC(C(=O)c2c[nH]c3cc(F)c(OC(F)(F)F)cc23)c2ccc(Cl)cc2OC)cc(OCCO)c1 (single isomer, unassigned) [Compound 15B, 2-(4-chloro-2-methoxyphenyl)-1-(6-fluoro-5-(trifluoromethoxy)-1H-indol-3-yl)-2-((3-(2-hydroxyethoxy)-5-methoxyphenyl)amino)ethanone] | 0.29 | 31 | 1500 | > 2100 | > 2400 | 1600 | 3.2 | 0.46 | 2600 | 0.15 | 
2 | COc1cc(NC(C(=O)c2c[nH]c3c(C)cc(OC(F)(F)F)cc23)c2ccc(Cl)cc2OC)cc(OCCO)c1 (single isomer, unassigned) [Compound 16A, 2-(4-chloro-2-methoxyphenyl)-2-((3-(2-hydroxyethoxy)-5-methoxyphenyl)amino)-1-(7-methyl-5-(trifluoromethoxy)-1H-indol-3-yl)ethanone] | 0.098 | 17 | > 2500 | > 2500 | > 2500 | > 2000 | 1.7 | 0.63 |  | 0.15 | 2400
3 | COc1cc(NC(C(=O)c2c[nH]c3cc(OC)c(OC(F)(F)F)cc23)c2ccc(Cl)cc2OC)cc(OCCO)c1 (single isomer, unassigned) [Compound 14A, 2-(4-chloro-2-methoxyphenyl)-2-((3-(2-hydroxyethoxy)-5-methoxyphenyl)amino)-1-(6-methoxy-5-(trifluoromethoxy)-1H-indol-3-yl)ethanone] | 0.17 | 25 | > 2100 | 3800 | > 2300 | 1600 | 5.1 | 0.92 | 2500 | 0.17 | 
4 | COc1cc(NC(C(=O)c2c[nH]c3c(C)cc(OC(F)(F)F)cc23)c2ccc(F)cc2OC)cc(OCCO)c1 (single isomer, unassigned) [Compound 8A, 2-(4-fluoro-2-methoxyphenyl)-2-((3-(2-hydroxyethoxy)-5-methoxyphenyl)amino)-1-(7-methyl-5-(trifluoromethoxy)-1H-indol-3-yl)ethanone] | 0.35 | 48 | 2100 | 3700 | > 2400 | 2600 | 5.8 | 0.71 | 2900 | 0.31 | 
5 | COc1cc(NC(C(=O)c2c[nH]c3cc(F)c(C(F)(F)F)cc23)c2ccc(Cl)cc2OC)cc(OCCO)c1 (single isomer, unassigned) [Compound 11A, 2-(4-chloro-2-methoxyphenyl)-1-(6-fluoro-5-(trifluoromethyl)-1H-indol-3-yl)-2-((3-(2-hydroxyethoxy)-5-methoxyphenyl)amino)ethanone] | 0.33 | 39 | > 2500 | > 2500 | > 2500 | 1900 | 5.7 | 0.69 |  | 0.24 | 2500
6 | COc1cc(NC(C(=O)c2c[nH]c3ccc(C(F)(F)F)cc23)c2ccc(Cl)cc2OC)cc(OCCO)c1 (single isomer, unassigned) [Compound 9B, 2-(4-chloro-2-methoxyphenyl)-2-((3-(2-hydroxyethoxy)-5-methoxyphenyl)amino)-1-(5-(trifluoromethyl)-1H-indol-3-yl)ethanone] | 0.18 | 50 | > 2000 | 3400 | > 2500 | 2700 | 6.3 | 0.88 | 3300 | 0.27 | 
7 | COc1cc(NC(C(=O)c2c[nH]c3cc(OC)c(C(F)(F)F)cc23)c2ccc(F)cc2OC)cc(OCCO)c1 (single isomer, unassigned) [Compound 2A, 2-(4-fluoro-2-methoxyphenyl)-2-((3-(2-hydroxyethoxy)-5-methoxyphenyl)amino)-1-(6-methoxy-5-(trifluoromethyl)-1H-indol-3-yl)ethanone] | 0.45 | 62 | > 2500 | 3200 | > 1900 | > 2100 | 19 | 2.2 |  | 0.25 | 3500
8 | COc1cc(NC(C(=O)c2c[nH]c3cc(F)c(C(F)(F)F)cc23)c2ccc(F)cc2OC)cc(OCCO)c1 (single isomer, unassigned) [Compound 3A, 2-(4-fluoro-2-methoxyphenyl)-1-(6-fluoro-5-(trifluoromethyl)-1H-indol-3-yl)-2-((3-(2-hydroxyethoxy)-5-methoxyphenyl)amino)ethanone] | 0.47 | 62 | > 2500 | 2600 | > 2500 | > 2500 | 18 | 2.1 | 2400 | 0.46 | 
